Calls of active or inactive are those of the source. The rule behind the calls is not given here. Bounds are passed on as bounds.

Among the data in PubChem BioAssay AID588588 (Sanford-Burnham Center for Chemical Genomics, 2011) are IC50 values, retold here.

The experiment addresses glucose-6-phosphate dehydrogenase-6-phosphogluconolactonase (Plasmodium falciparum 3D7). Put plainly: PfG6PD enzyme inhibitors, direct NADPH readout, SAR follow-up, orthogonal assay, biochemical, end-point NADPH detection (AID 588588). The conditions noted are these: recombinant PfG6PD-6PGL.
Usually IC50 stands for the midpoint of a concentration-inhibition curve. As to `CCCN(CCC)CCNC(=O)c1ccc2c(c1)NC(=O)/C(=C\c1ccc(C)cc1)S2`, the IC50 is > 80 µM (inactive).

Consider `CN1CCCC1CCNC(=O)c1ccc2c(c1)NC(=O)/C(=C/c1ccccc1F)S2` (configuration not stated), for which the IC50 was > 80 µM (inactive).

As for `O=C(Nc1nnc(S(=O)(=O)N2CCOCC2)s1)c1cccc(F)c1`, the IC50 was > 80 µM (inactive).

For the compound `O=C(Nc1nnc(S(=O)(=O)N2CCCc3ccccc32)s1)c1cccc(F)c1`, the IC50 is > 80 µM (inactive).

Regarding `COc1ccc(/C=C2/Sc3ccc(C(=O)NCCN4CCCC4)cc3NC2=O)cc1`, the IC50 was > 80 µM (inactive).

Consider `Cc1ccc(C(=O)Nc2nnc(S(=O)(=O)N3CCCCCC3)s2)cc1`, for which the IC50 is > 80 µM (inactive).

Turning to `O=C1Nc2cc(C(=O)NCCN3CCCC3)ccc2S/C1=C\c1ccccc1F`, the IC50 was > 80 µM (inactive).

Turning to `CCN1CCCC1CNC(=O)c1ccc2c(c1)NC(=O)/C(=C/c1ccccc1F)S2` (configuration not stated), the IC50 is > 80 µM (inactive).

As for `CN(C)CCNC(=O)c1ccc2c(c1)NC(=O)/C(=C\c1cccc(Cl)c1)S2`, the IC50 is > 80 µM (inactive).

As for `CCN1CCCC1CNC(=O)c1ccc2c(c1)NC(=O)c1ccccc1O2` (configuration not stated), the IC50 was 24.2 µM.

`Cc1cccc(C(=O)Nc2nnc(S(=O)(=O)N3CCOCC3)s2)c1`: the IC50 was > 80 µM (inactive).

With `CCN1CCCC1CNC(=O)c1ccc2c(c1)N(Cc1ccc(C(F)(F)F)cc1)C(=O)c1ccccc1S2` (configuration not stated), the IC50 was > 80 µM (inactive).
